From publication PMC4987650, “Structural Investigation of Park’s Nucleotide on Bacterial Translocase MraY: Discovery of Unexpected MraY Inhibitors” (Scientific Reports, 2016)

Assays:
Assay type in all cases: biochemical
MraYBS K102A mutant = target: T1, MraYBS K102A mutant (Bacillus subtilis, UniProt Q03521, K102A); assay: HPLC-based MraY functional assay, mutant MraY; settings: consumption of 6 in one-hour reaction
T1 construct: MBP; made in house
Protocol: (§1) The purified MraY from Bacillus subtilis was prepared as described in our previous reports. For 5 and 7–10, the reaction mixture containing MraYBS (10 μg/mL), C55P (200 μM) in 40 μL reaction buffer (30 mM Tris, 10 mM MgCl2, 10 mM NaCl, 0.1 mM Tween-20, 2.5% DMSO, pH 8.0) were pre-incubated at 37 °C for 15 min. The reactions were initiated by the addition of Park’s nucleotide analogues (10 μM) and incubated at 37 °C for 1 h. The reaction mixtures were added by uridine (0.01 mg/mL) as the internal standard and heated to 100 °C to stop the transferring reaction. The samples were analyzed by RP-C18 HPLC with gradient elution of 0.25 M NH4HCO3(aq)/15% MeOH in water (100:0 to 0:100) at a flow rate of 1 mL/min over 45 min, and the peaks of substrates were monitored at UV 260 nm. […] The reaction mixtures were heated to 100 °C to stop the transferring reaction, and samples were analyzed by an anion-exchange column (SAX1, Supelco Co., 5 μm, 4.6 × 250 mm) with a linear gradient elution of NH4OAc (20 mM to 1 M in MeOH) at a flow rate of 1.0 mL/min over 30 min. The fluorescent substrates were monitored with λex 466 nm/λem 535 nm by fluorescence detector. […]

MraYBS = target: T2, MraYBS (Bacillus subtilis, UniProt Q03521); assay: MraY fluorescence enhancement assay (kinetics, inhibition); settings: WT MraYBS, 6 as the substrate
T2 construct: MBP; made in house
T2 sequence (Q03521 1-324): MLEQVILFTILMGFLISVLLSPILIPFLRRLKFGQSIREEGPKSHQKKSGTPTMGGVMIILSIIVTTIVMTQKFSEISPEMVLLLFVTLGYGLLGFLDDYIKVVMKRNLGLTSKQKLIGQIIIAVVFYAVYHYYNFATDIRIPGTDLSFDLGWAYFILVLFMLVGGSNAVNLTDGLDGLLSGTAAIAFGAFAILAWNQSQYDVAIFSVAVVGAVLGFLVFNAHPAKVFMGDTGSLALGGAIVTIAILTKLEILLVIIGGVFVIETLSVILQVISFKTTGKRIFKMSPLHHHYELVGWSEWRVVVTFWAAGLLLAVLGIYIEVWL
Protocol: Determine kinetic parameters by MraY fluorescence enhancement assay. The fluorescence enhancement assay was performed in 384-well plate as described by Bugg et al. with slight modifications.5 The reaction mixture containing MraYBS (10 μg/mL), C55P (200 μM) in 30 μL reaction buffer (30 mM Tris, 10 mM MgCl2, 10 mM NaCl, 0.1 mM Tween-20, 2.5% DMSO, pH 8.0) were pre-incubated at 37 °C for 15 min. The reactions were initiated by the addition of various concentrations of NBD-Park’s nucleotide 6 (0 to 160 μM). For inhibition study, a various concentrations of inhibitors were added before the addition of substrate 6. The continuous fluorescence increase over 60 min was monitored with λex 466 nm/λem 535 nm by fluorescence microplate reader (SpectraMax M5, Molecular Devices, LLC) at 37 °C. Linear regressions of increased fluorescent units (FLU) versus time (min) were used to calculate the initial velocities for each reaction. The kinetic parameters values (Ki, KM, and Vmax) were obtained by nonlinear regression analysis using the […] equation with the GraphPad Prism program (GraphPad Software, San

MraYBS W297A mutant = target: T3, MraYBS W297A mutant (Bacillus subtilis, UniProt Q03521, W297A); assay: HPLC-based MraY functional assay, mutant MraY; settings: consumption of 6 in one-hour reaction
T3 construct: MBP; made in house
Protocol: as §1

CC(=O)N[C@H]1[C@@H](OP(=O)(O)OP(=O)(O)OC[C@H]2O[C@@H](n3ccc(=O)[nH]c3=O)[C@H](O)[C@@H]2O)O[C@H](CO)[C@@H](O)[C@@H]1O[C@H](C)C(=O)N[C@@H](C)C(=O)N[C@H](CCC(=O)N[C@@H](CCCCNC(=O)CCCCCNc1ccc([N+](=O)[O-])c2nonc12)C(=O)N[C@H](C)C(=O)N[C@H](C)C(=O)O)C(=O)O [Compound 6, NBD-Park’s nucleotide]
Relative activity (MraYBS K102A mutant): 33%
Vmax (MraYBS): 18 ± 0.8 FLU/min
Relative activity (MraYBS W297A mutant): 17%
